The test system of one test is DU145. Put plainly: Growth inhibition, neutral red assay, DU145. The class given is cell-based, human. To be noted: free base, five days. How it is done: (§1) Compound I's activity is not confined to activity against colon cancer cell lines or animal models of colon cancer. It has a broad range of anti-neoplastic effects in various neoplastic cell lines. Various types of human cancer cell lines were propagated under sterile conditions in RPMI 1640 medium with 10% fetal bovine serum, 2 mM L-glutamine and sodium bicarbonate. To determine growth inhibitory effects of Compound I, cells were seeded in 96-well plates at a density of 1000 cells per well. Twenty-four hours after plating, the cells were dosed with various concentrations of the free base of Compound I solubilized in DMSO (final concentration 0.1%). The effect of the drug on tumor cell growth was determined using the neutral red cytotoxicity assay following five days of continuous treatment. Neutral red is a dye that is selectively taken up by viable cells by an ATP-dependent transport mechanism.

The target of test [1] is T1, purified cyclooxygenase (Type 1, COX-I) from ram seminal vesicles (Ovis aries, UniProt P05979).
T1 construct: using purified cyclooxygenase from ram seminal vesicles as described previously; tissue Cayman Chemical, Ann Arbor, Mich; (named in the general protocol only); host or cells: ram seminal vesicles
T1 sequence (P05979 25-600): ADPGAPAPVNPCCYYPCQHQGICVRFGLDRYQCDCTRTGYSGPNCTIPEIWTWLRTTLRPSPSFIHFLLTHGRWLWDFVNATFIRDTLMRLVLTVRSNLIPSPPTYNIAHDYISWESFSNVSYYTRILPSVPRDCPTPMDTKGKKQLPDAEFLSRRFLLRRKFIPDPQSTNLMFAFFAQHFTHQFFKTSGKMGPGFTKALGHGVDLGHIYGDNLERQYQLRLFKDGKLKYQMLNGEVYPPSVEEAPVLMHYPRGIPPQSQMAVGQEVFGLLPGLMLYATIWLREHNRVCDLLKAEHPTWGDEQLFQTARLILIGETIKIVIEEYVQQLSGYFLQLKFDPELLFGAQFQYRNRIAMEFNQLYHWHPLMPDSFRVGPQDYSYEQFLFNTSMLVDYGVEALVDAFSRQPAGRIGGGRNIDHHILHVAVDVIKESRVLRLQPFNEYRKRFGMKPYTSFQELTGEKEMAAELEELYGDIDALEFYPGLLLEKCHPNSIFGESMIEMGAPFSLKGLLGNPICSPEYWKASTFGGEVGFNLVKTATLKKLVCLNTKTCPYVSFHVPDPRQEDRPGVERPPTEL
Description: COX inhibition assay, purified cyclooxygenase. To be noted: for inhibition at 100 µM: read-out: Cyclooxygenase inhibitory activity, % Inhibition at 100 μM. The test is classed as biochemical.

Test [2] deals with SW-480 colon adenocarcinoma cells. Description: Apoptosis fold induction protocol (DNA fragmentation ELISA). To be noted: Homo sapiens.
The test system of another test is CCRF-CEM. Put plainly: Growth inhibition, neutral red assay, CCRF-CEM. The note with it: Homo sapiens, HCl salt. The test is classed as cell-based. On the procedure: as §1
Test [3] relates to cGMP PDE purified from human colon HT-29 cultured tumor cells. Put plainly: cGMP PDE inhibition assay. The note with it: for IC50: read-out: IC50 for inhibition of cGMP PDE, HT-29 cell enzyme. The class given is biochemical.
Test [4] deals with KNRK, Kidney (ras transformed). Description: Growth inhibition, SRB assay, KNRK. The test is classed as cell-based. Background: The SRB assay estimates cell density from bound dye.
Test [5] has as its system PKG activity in SW480 colon cancer cells. Put plainly: PKG assay of lysates of drug-treated SW480 cells. The test is classed as cell-based, human. To be noted: SW480 treated 48 hrs; exisulind 200, 400, 600 μM; E4021 0.1, 1, 10 μM; with and without added cGMP. From the text: That sequence is known and described in the literature below. […] One way to bind the PDE5 sequences to a solid phase is to express those sequences as a fusion protein of the PDE5 sequence and one member of an amino acid binding pair, and chemically link the other member of that amino acid binding pair to a solid phase (e.g., beads). One binding pair that can be used is glutathione S-transferase (“GST”) and glutathione (“GSH”), with the GST being expressed as a fusion protein with the PDE5 sequence described above, and the GSH bound covalently to the solid phase. In this fashion, the PDE5 sequence/GST fusion protein can be bound to a solid phase simply by passing a solution containing the fusion protein over the solid phase, as described below.
To assay a liquid sample believed to contain PKG using the PDE5-bound solid phase described above, the sample and the solid phase are mixed with phosphorylation buffer containing ^32P-γ-ATP. The solution is incubated for 30 minutes at 30° C. to allow for phosphorylation of the PDE5 sequence by PKG to occur, if PKG is present. […]
For each control or drug cell lysate sample to be evaluated, the reaction is started by adding phosphorylation buffer containing 10 μCi ^32P-γ-ATP solution (200 μM ATP, 4.5 mM MgCl; 5 mM KH2PO4; 5 mM K2HPO4;) to each mixture. […]

Where a name gives a salt, the structure may show the parent alone.

One may read the GI50 as the concentration giving 50% growth inhibition. The inhibition is the percentage by which the read-out fell short of the control. The EC50 is the midpoint of the concentration-response curve. A word on the IC50: it is the concentration that inhibits the measured activity by half. Take `CC1=C(CC(=O)NCc2ccccc2)c2cc(F)ccc2/C1=C\c1ccncc1` [Compound I, (Z)-5-fluoro-2-methyl-(4-pyridylidene)-3-(N-benzyl)indenylacetamide hydrochloride]: the GI50 was found to be 1.6 µM in the test on DU145 (Homo sapiens, DU-145, 120 h) and 1.4 µM in the test on CCRF-CEM. Further, the “GI90 μM, DU145” value in the test with DU145 came to 2.8 µM. The inhibition at 100 µM in test [1] was less than 25%. Further, in test [2] (SW480, read-out: DNA fragmentation EC50), the EC50 amounted to 15000 nM. Also, in test [3], the IC50 was determined as 680 nM.
As to `CC1=C(CC(=O)O)c2cc(F)ccc2/C1=C\c1ccc(S(C)(=O)=O)cc1` [Exisulind, 5-fluoro-2-methyl-1-(p-methylsulfonylbenzylidene)-3-indenylacetic acid], the half-inhibitory concentration (IC50) in test [4] was found to be 240 µM; in test [3] it was 56000 nM. In test [5], the “PKG activity relative to control” value was “causes PKG activity to increase in a dose-dependent manner”. Moreover, the “COX Inhibition” value in test [1] (qualitative activity profile) was “−”. The inhibition at 100 µM in test [1] was less than 25%. Also, the fold induction at 100 µM in test [2] (SW480, read-out: Apoptosis-inducing activity, Fold induction at 100 μM, 100 μM, cell line not given) is less than 2. Moreover, the “cGMP PDE inhibitory activity, % Inhibition at 10 μM” value in test [3] (10 μM) was determined as 39%. The “PDE Inhibition” value in test [3] (qualitative activity profile) is given as “++”.

Source of the values: patent US20030109418A1, “Methods for identifying compounds for inhibition of neoplastic lesions, and pharmaceutical compositions containing such compounds” (priority 1999, published 2003).
